Laboratory results: US20240279278A1, “NMU RECEPTOR 2 AGONISTS” (Boehringer Ingelheim International GmbH, priority 2023, published 2024)
Residues, ends and D or L forms follow the SMILES beside them.

How the values were obtained:
human NMUR1 receptor = target: T1, human NMUR1 receptor (Homo sapiens, UniProt Q9HB89); experiment: IP1 Gq HTRF assay, activation of human NMUR1 in buffer; format: cell-based; conditions: CHO-K1 cells expressing human NMUR1, stimulation buffer with 0.1% BSA; read-out: EC50 (hNMUR1) buffer
T1 construct: expressed in transfected cells; host or cells: CHO-K1
T1 sequence (Q9HB89 1-426): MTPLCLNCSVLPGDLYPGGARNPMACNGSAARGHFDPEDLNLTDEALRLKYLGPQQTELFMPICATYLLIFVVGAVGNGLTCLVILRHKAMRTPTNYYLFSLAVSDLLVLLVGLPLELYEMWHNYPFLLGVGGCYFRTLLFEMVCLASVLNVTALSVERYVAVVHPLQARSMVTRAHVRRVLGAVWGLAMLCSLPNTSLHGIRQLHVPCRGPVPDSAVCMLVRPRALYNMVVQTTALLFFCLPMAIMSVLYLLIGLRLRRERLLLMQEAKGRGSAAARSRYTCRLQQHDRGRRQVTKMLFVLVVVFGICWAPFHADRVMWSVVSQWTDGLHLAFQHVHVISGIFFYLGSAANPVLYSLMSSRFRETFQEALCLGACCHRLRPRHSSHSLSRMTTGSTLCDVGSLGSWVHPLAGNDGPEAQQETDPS
How it was run: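 CHO-K1 cells stably expressing human NMUR1 or NMUR2, seeded 24 h before assay, stimulated with peptide agonists (8-point dose-response, 1% DMSO final) in HEPES/HBSS buffer with 50 mM LiCl and 0.1% BSA, pH 7.4, 1 h at 37 °C. IP1 accumulation read by HTRF competition (665/620 nm); EC50 from 4-parameter sigmoidal fit.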

human NMUR2 receptor = human NMUR2 receptor (Homo sapiens, UniProt Q9GZQ4); experiment: IP1 Gq HTRF assay, activation of human NMUR2 in human plasma; format: cell-based; design: expressed in transfected cells; host or cells: CHO-K1; conditions: CHO-K1 cells expressing human NMUR2, 100% human plasma; read-out: EC50 (hNMUR2) human plasma
How it was run: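 CHO-K1 cells stably expressing human NMUR2 exposed to peptide agonists (8-point dose-response) in 100% human plasma with 50 mM LiCl, 1% DMSO, for 1 h at 37° C. IP1 accumulation read by HTRF competition (665/620 nm ratio). EC50 from 4-parameter sigmoidal fit.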

human NMUR2 receptor, sequence (Q9GZQ4 whole entry): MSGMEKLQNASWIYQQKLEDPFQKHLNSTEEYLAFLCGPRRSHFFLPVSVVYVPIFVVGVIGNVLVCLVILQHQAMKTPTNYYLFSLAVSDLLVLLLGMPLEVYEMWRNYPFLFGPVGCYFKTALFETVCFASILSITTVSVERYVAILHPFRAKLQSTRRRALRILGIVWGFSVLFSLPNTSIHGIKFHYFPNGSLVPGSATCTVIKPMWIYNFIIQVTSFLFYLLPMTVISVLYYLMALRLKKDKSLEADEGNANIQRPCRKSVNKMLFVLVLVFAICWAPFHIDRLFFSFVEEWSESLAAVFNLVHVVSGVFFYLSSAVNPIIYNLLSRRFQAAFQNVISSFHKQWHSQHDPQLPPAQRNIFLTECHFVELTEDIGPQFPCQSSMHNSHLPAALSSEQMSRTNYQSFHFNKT

Row | SMILES | EC50 (human NMUR1 receptor) | EC50 (human NMUR2 receptor)
1 | CCCC[C@H](NC(=O)[C@H](CC(C)C)N(C)C(=O)[C@H](Cc1ccccc1)NC(=O)[C@H](Cc1ccc(O)cc1)NC(=O)CN1CCN(CCNC(=O)CN(C)C(=O)CN(C)C(=O)CN(C)C(=O)CN(C)C(=O)CN(C)C(=O)CN(C)C(=O)CN(C)C(=O)CN(C)C(=O)CN(C)C(=O)CC[C@H](NC(=O)CC[C@H](NC(=O)CC[C@H](NC(=O)CCCCCCCCCCCCCCCCC(=O)O)C(=O)O)C(=O)O)C(=O)O)CC1)C(=O)N[C@@H](CCN)C(=O)N1CCC[C@H]1C(=O)N[C@@H](CCCNC(=N)N)C(=O)NCC(N)=O [Compound 24, C18DA-gGlu3-Sar9-AEPipAc-Tyr-Phe-NMeLeu-Nle-Dbu-Pro-Arg-Gly-NH2] (HELM PEPTIDE1{[O=C(O)CCCCCCCCCCCCCCCCC(=O)[*:2]].[gGlu].[gGlu].[gGlu].[Sar].[Sar].[Sar].[Sar].[Sar].[Sar].[Sar].[Sar].[Sar].[O=C(CN1CCN(CCN[*:1])CC1)[*:2]].Y.F.[meL].[Nle].[Dab].P.R.G.[am]}$$$$V2.0) | 1000 nM | 12.6 nM
2 | CCCC[C@H](NC(=O)[C@H](CC(C)C)N(C)C(=O)[C@H](Cc1ccccc1)NC(=O)[C@H](Cc1ccc(O)cc1)NC(=O)CN1CCN(CCNC(=O)CN(C)C(=O)CN(C)C(=O)CN(C)C(=O)CN(C)C(=O)CN(C)C(=O)CN(C)C(=O)CN(C)C(=O)CN(C)C(=O)CN(C)C(=O)CN(C)C(=O)CN(C)C(=O)CN(C)C(=O)CN(C)C(=O)CN(C)C(=O)CN(C)C(=O)CC[C@H](NC(=O)CC[C@H](NC(=O)CC[C@H](NC(=O)CCCCCCCCCCCCCCCCCCC(=O)O)C(=O)O)C(=O)O)C(=O)O)CC1)C(=O)N[C@@H](CCCNC(=N)N)C(=O)N(C)[C@@H](C)C(=O)N[C@@H](CCCNC(=N)N)C(=O)NCC(N)=O [Compound 10, C20DA-gGlu3-Sar15-AEPipAc-Tyr-Phe-NMeLeu-Nle-Arg-NMeAla-Arg-Gly-NH2] (HELM PEPTIDE1{[O=C(O)CCCCCCCCCCCCCCCCCCC(=O)[*:2]].[gGlu].[gGlu].[gGlu].[Sar].[Sar].[Sar].[Sar].[Sar].[Sar].[Sar].[Sar].[Sar].[Sar].[Sar].[Sar].[Sar].[Sar].[Sar].[O=C(CN1CCN(CCN[*:1])CC1)[*:2]].Y.F.[meL].[Nle].R.[meA].R.G.[am]}$$$$V2.0) | 720 nM | 9.8 nM
3 | CCCC[C@H](NC(=O)[C@H](CC(C)C)N(C)C(=O)[C@H](Cc1ccccc1)NC(=O)[C@H](Cc1ccc(O)cc1)NC(=O)CN1CCN(CCNC(=O)CN(C)C(=O)CN(C)C(=O)CN(C)C(=O)CN(C)C(=O)CN(C)C(=O)CN(C)C(=O)CN(C)C(=O)CN(C)C(=O)CN(C)C(=O)CN(C)C(=O)CN(C)C(=O)CN(C)C(=O)CC[C@H](NC(=O)CC[C@H](NC(=O)CC[C@H](NC(=O)CCCCCCCCCCCCCCCCC(=O)O)C(=O)O)C(=O)O)C(=O)O)CC1)C(=O)N[C@@H](CCN)C(=O)N(C)[C@@H](C)C(=O)N[C@@H](CCCNC(=N)N)C(=O)NCC(N)=O [Compound 38, C18DA-gGlu3-Sar12-AEPipAc-Tyr-Phe-NMeLeu-Nle-Dbu-NMeAla-Arg-Gly-NH2] | > 1000 nM | 9.7 nM
4 | CCCC[C@H](NC(=O)[C@H](CC(C)C)N(C)C(=O)[C@H](Cc1ccccc1)NC(=O)[C@H](Cc1ccc(O)cc1)NC(=O)CN1CCN(CCNC(=O)CN(C)C(=O)CN(C)C(=O)CN(C)C(=O)CN(C)C(=O)CN(C)C(=O)CN(C)C(=O)CN(C)C(=O)CN(C)C(=O)CN(C)C(=O)CN(C)C(=O)CN(C)C(=O)CN(C)C(=O)CN(C)C(=O)CN(C)C(=O)CN(C)C(=O)CC[C@H](NC(=O)CC[C@H](NC(=O)CC[C@H](NC(=O)CCCCCCCCCCCCCCCCC(=O)O)C(=O)O)C(=O)O)C(=O)O)CC1)C(=O)N[C@@H](CCN)C(=O)N1CCC[C@H]1C(=O)N[C@@H](CCCNC(=N)N)C(=O)NCC(N)=O [Compound 26, C18DA-gGlu3-Sar15-AEPipAc-Tyr-Phe-NMeLeu-Nle-Dbu-Pro-Arg-Gly-NH2] (HELM PEPTIDE1{[O=C(O)CCCCCCCCCCCCCCCCC(=O)[*:2]].[gGlu].[gGlu].[gGlu].[Sar].[Sar].[Sar].[Sar].[Sar].[Sar].[Sar].[Sar].[Sar].[Sar].[Sar].[Sar].[Sar].[Sar].[Sar].[O=C(CN1CCN(CCN[*:1])CC1)[*:2]].Y.F.[meL].[Nle].[Dab].P.R.G.[am]}$$$$V2.0) | > 1000 nM | 3.9 nM
5 | CCCC[C@H](NC(=O)[C@H](CC(C)C)N(C)C(=O)[C@H](Cc1ccccc1)NC(=O)[C@H](Cc1ccc(O)cc1)NC(=O)CN1CCN(CCNC(=O)CN(C)C(=O)CN(C)C(=O)CN(C)C(=O)CN(C)C(=O)CN(C)C(=O)CN(C)C(=O)CN(C)C(=O)CN(C)C(=O)CN(C)C(=O)CN(C)C(=O)CN(C)C(=O)CN(C)C(=O)CN(C)C(=O)CN(C)C(=O)CN(C)C(=O)CC[C@H](NC(=O)CC[C@H](NC(=O)CC[C@H](NC(=O)CCCCCCCCCCCCCCCCC(=O)O)C(=O)O)C(=O)O)C(=O)O)CC1)C(=O)N[C@@H](CCCN)C(=O)N(C)[C@@H](C)C(=O)N[C@@H](CCCNC(=N)N)C(=O)NCC(N)=O [Compound 22, C18DA-gGlu3-Sar15-AEPipAc-Tyr-Phe-NMeLeu-Nle-Orn-NMeAla-Arg-Gly-NH2] (HELM PEPTIDE1{[O=C(O)CCCCCCCCCCCCCCCCC(=O)[*:2]].[gGlu].[gGlu].[gGlu].[Sar].[Sar].[Sar].[Sar].[Sar].[Sar].[Sar].[Sar].[Sar].[Sar].[Sar].[Sar].[Sar].[Sar].[Sar].[O=C(CN1CCN(CCN[*:1])CC1)[*:2]].Y.F.[meL].[Nle].[Orn].[meA].R.G.[am]}$$$$V2.0) | > 1000 nM | 10.8 nM
6 | CCCC[C@H](NC(=O)[C@H](CC(C)C)N(C)C(=O)[C@H](Cc1ccccc1)NC(=O)[C@H](Cc1ccc(O)cc1)NC(=O)CN1CCN(CCNC(=O)CN(C)C(=O)CN(C)C(=O)CN(C)C(=O)CN(C)C(=O)CN(C)C(=O)CN(C)C(=O)CN(C)C(=O)CN(C)C(=O)CN(C)C(=O)CN(C)C(=O)CN(C)C(=O)CN(C)C(=O)CN(C)C(=O)CN(C)C(=O)CN(C)C(=O)CC[C@H](NC(=O)CC[C@H](NC(=O)CC[C@H](NC(=O)CCCCCCCCCCCCCCCCC(=O)O)C(=O)O)C(=O)O)C(=O)O)CC1)C(=O)N[C@@H](CCCNC(=N)N)C(=O)N1CCC[C@H]1C(=O)N[C@@H](CCCNC(=N)N)C(=O)NCC(N)=O [Compound 7, C18DA-gGlu3-Sar15-AEPipAc-Tyr-Phe-NMeLeu-Nle-Arg-Pro-Arg-Gly-NH2] (HELM PEPTIDE1{[O=C(O)CCCCCCCCCCCCCCCCC(=O)[*:2]].[gGlu].[gGlu].[gGlu].[Sar].[Sar].[Sar].[Sar].[Sar].[Sar].[Sar].[Sar].[Sar].[Sar].[Sar].[Sar].[Sar].[Sar].[Sar].[O=C(CN1CCN(CCN[*:1])CC1)[*:2]].Y.F.[meL].[Nle].R.P.R.G.[am]}$$$$V2.0) | 250 nM | 4.4 nM
7 | CCCC[C@H](NC(=O)[C@H](CC(C)C)N(C)C(=O)[C@H](Cc1ccccc1)NC(=O)[C@H](Cc1ccc(O)cc1)NC(=O)CN1CCN(CCNC(=O)CN(C)C(=O)CN(C)C(=O)CN(C)C(=O)CN(C)C(=O)CN(C)C(=O)CN(C)C(=O)CN(C)C(=O)CN(C)C(=O)CN(C)C(=O)CN(C)C(=O)CN(C)C(=O)CN(C)C(=O)CN(C)C(=O)CN(C)C(=O)CN(C)C(=O)CC[C@H](NC(=O)CC[C@H](NC(=O)CC[C@H](NC(=O)CCCCCCCCCCCCCCCCCCC(=O)O)C(=O)O)C(=O)O)C(=O)O)CC1)C(=O)N[C@@H](CCN)C(=O)N(C)[C@@H](C)C(=O)N[C@@H](CCCNC(=N)N)C(=O)NCC(N)=O [Compound 43, C20DA-gGlu3-Sar15-AEPipAc-Tyr-Phe-NMeLeu-Nle-Dbu-NMeAla-Arg-Gly-NH2] (HELM PEPTIDE1{[O=C(O)CCCCCCCCCCCCCCCCCCC(=O)[*:2]].[gGlu].[gGlu].[gGlu].[Sar].[Sar].[Sar].[Sar].[Sar].[Sar].[Sar].[Sar].[Sar].[Sar].[Sar].[Sar].[Sar].[Sar].[Sar].[O=C(CN1CCN(CCN[*:1])CC1)[*:2]].Y.F.[meL].[Nle].[Dab].[meA].R.G.[am]}$$$$V2.0) | > 1000 nM | 10.1 nM
8 | CCCC[C@H](NC(=O)[C@H](CC(C)C)N(C)C(=O)[C@H](Cc1ccccc1)NC(=O)[C@H](Cc1ccc(O)cc1)NC(=O)CN1CCN(CCNC(=O)CN(C)C(=O)CN(C)C(=O)CN(C)C(=O)CN(C)C(=O)CN(C)C(=O)CN(C)C(=O)CN(C)C(=O)CN(C)C(=O)CN(C)C(=O)CN(C)C(=O)CN(C)C(=O)CN(C)C(=O)CC[C@H](NC(=O)CC[C@H](NC(=O)CC[C@H](NC(=O)CCCCCCCCCCCCCCCCC(=O)O)C(=O)O)C(=O)O)C(=O)O)CC1)C(=O)N[C@@H](CCCNC(=N)N)C(=O)N1CCC[C@H]1C(=O)N[C@@H](CCCNC(=N)N)C(=O)NCC(N)=O [Compound 25, C18DA-gGlu3-Sar12-AEPipAc-Tyr-Phe-NMeLeu-Nle-Arg-Pro-Arg-Gly-NH2] | 200 nM | 8.6 nM
